# Test results: US20260053801A1, “METHOD FOR TREATING AUTOPHAGY DEPENDENT CANCER WITH A PIKFYVE INHIBITOR” (The Regents of the University of Michigan, priority 2023, published 2026)
# What was measured:
# [1] = system: NCI-H660 NEPC cell line-derived xenografts; assay: NCI-H660 NEPC xenograft in SCID mice; assay type: in vivo; conditions: 46 days of treatment, 30 mg/kg
# Protocol: (§1) For xenograft studies, 6-10-week-old CB17 severe combined immunodeficiency (SCID) mice obtained from the University of Michigan breeding colony were used. For syngeneic studies, 6-10-week-old C57BL6 mice obtained from Jackson Laboratories were used. Subcutaneous tumors were established at both sides of the dorsal flank of the mice by injecting 1×10^6 cells in […] of 50:50 Matrigel and serum-free media. Tumors were measured 2-3 times per week using digital calipers following the formula (π/6) (L×W2), where L=length and W=width of the tumor. At the end of the studies, mice were sacrificed, and tumors extracted and weighed.
# Given the hypoxic and nutrient-depleted environments of NEPC Guo et al., Nat Commun. 2019; 10(1):278; Qi et al., Cancer Cell. 2010; 18(1):23-38., it was hypothesized that NEPC may be dependent on autophagy and sensitive to PIKfyve inhibition by ESK981. To test this NEPC prostate patient-derived xenograft (PDX) of NCI-H660, LTL331R, and LTL610 were subcutaneously grown into non-castrated SCID mice until tumors reached an average size of 100 mm^3, after which mice were randomized into two groups. Mice in each group received either vehicle or 30 mg/kg ESK981 five days per week. […] The anti-tumor effect of ESK981 was in turn confirmed in two additional NEPC PDX models including LTL331R (FIGS. 12-14) and LTL610 xenografts (FIG. 15-17). […]
# LTL545 NEPC PDX tumors = assay: LTL545 NEPC PDX model; conditions: mouse, in vivo
# [2] = system: MIA-PaCa-2 human PDAC cell line xenograft; assay: MIA-PaCa-2 PDAC xenograft (CDX) in SCID mice; assay type: in vivo; conditions: Day 36 versus Day 1
# Protocol: as §1
# Terminal dUTP Nick End Labeling (TUNEL) staining was performed with an In Situ Cell Death Detection Kit (TMR Red #12156792910; Roche Applied Science) following the manufacturer's instructions. Briefly, fixed sections were permeabilized using Triton X-100 followed by PBS washing. The labelling reaction was performed at 37° C. for 1 hour by addition of the reaction buffer containing enzymes. Images were acquired using a Zeiss Axiolmager M1 microscope.
# Given the enhanced autophagy dependence of PDAC and the urgent need for new therapies, ESK981 was investigated for efficacy in combatting this type of cancer. […]
# 7940B orthotopic tumors = assay: 7940B syngeneic orthotopic model in C57BL/6 mice; assay type: in vivo, mouse; conditions: ESK981 30 mg/kg QD PO, trametinib 1 mg/kg QD PO
# [3] = system: MIA PaCa-2, PANC-1, and 7940B cell lines; assay: Confluence assays of ND646 with PIKfyve inhibitors; assay type: cell-based, human and mouse; conditions: ND646 100 nM (MIA PaCa-2, PANC-1), 1000 nM (7940B)
# Protocol: (§2) Cells were seeded in a clear 96-well plate overnight prior to treatment. Upon treatment with indicated compounds, plates were incubated in an Incucyte S3 2022 Rev1 (Sartorious), with 10× images taken every 4 hours, and well confluence was analyzed to assess for proliferation.
# ACC1 = target: T1, ACC1 (Homo sapiens, UniProt Q13085); assay: Immunoblot of ACC1 phosphorylation status upon ND646; assay type: cell-based; conditions: MIA PaCa-2, PANC-1, 7940B cells
# T1 construct: endogenous in cells; host or cells: MIA PaCa-2 (human PDAC)
# Protocol: Cell lysates were prepared in RIPA buffer (ThermoFisher Scientific) supplemented with Halt™ Protease and Phosphatase Inhibitor Cocktail (ThermoFisher Scientific). Total protein was measured by DC™ Protein Assay Kit II (BIO-RAD). An equal amount of protein was resolved in NuPAGE™ 3 to 8%, Tris-Acetate Protein Gel (ThermoFisher Scientific) or NuPAGE™ 4 to 12%, Bis-Tris Protein Gel (ThermoFisher Scientific), blocked with 5% nonfat dry milk in TBS-T and blotted with primary antibodies overnight. Following incubation with HRP-conjugated secondary antibodies, membranes were imaged on an Odyssey CLx Imager (LiCOR Biosciences).
# 7940B cells = assay: Real-time oxygen consumption rate (Resipher) in 7940B cells; assay type: cell-based, mouse; conditions: apilimod 100 nM, ESK981 1000 nM, bafilomycin 100 nM, chloroquine 100 μM
# Protocol: Real-time monitoring of basal oxygen consumption rate was performed using a Resipher (Lucid Scientific). […] Immediately following treatment with an additional 50 μl of medium (for a total of 100 μl), OCR monitoring was started by placing the Resipher device on the cells, which was incubated at 37° C. and 5% CO2 for 24 hours.
# [4] = system: PDAC cells (7940B, PANC-1, Panc 04.03); assay: Rescue of antiproliferative effects with ferric ammonium citrate (FAC); assay type: cell-based, human and mouse; conditions: with ferric ammonium citrate and ferrostatin-1 (1 μM)
# Protocol: as §2
smiles,measurement,setting,value
"CC(C)Cn1c2ccc(Nc3ncccn3)cc2c2c3c(c4c(c21)CCc1nn(C)cc1-4)C(=O)NC3 [ESK981, 13-isobutyl-4-methyl-10-(pyrimidin-2-ylamino)-1,2,4,7,8,13-hexahydro-6H-indazolo[5,4-a]pyrrolo[3,4-c]carbazol-6-one]",adverse events,[1],no adverse events were observed
same,individual tumors regressed (waterfall plot),LTL545 NEPC PDX tumors,80%
same,tumors cured,LTL545 NEPC PDX tumors,80%
same,rate of tumor regression (waterfall plot),[2],64%
same,mouse body weight throughout the treatment course,7940B orthotopic tumors,did not impact mouse body weight
COc1ccccc1[C@H](Cn1c(=O)n(C(C)(C)C(N)=O)c(=O)c2c(C)c(-c3ncco3)sc21)OC1CCOCC1 [ND646],sensitization to ESK981 (confluence),[3]; ESK981 30 nM or 100 nM,sensitized
same,sensitization to apilimod (confluence),[3]; apilimod 100 nM or 50 nM,sensitized
same,phosphorylation status of ACC1 (p-ACC1),ACC1,on-target effects
CO/C1=C\C(C)=C\[C@@H](C)[C@@H](O)[C@@H](C)C/C(C)=C/C=C/[C@H](OC)[C@@H]([C@@H](C)[C@@H](O)[C@H](C)[C@@]2(O)C[C@@H](O)[C@H](C)[C@@H](C(C)C)O2)OC1=O [bafilomycin A1],OCR through 24 hours of treatment,7940B cells,significantly decreased OCR
same,antiproliferative effects upon addition of FAC,[4],drastically attenuated
CC(=O)Nc1cccc(-n2c(=O)n(C3CC3)c(=O)c3c(Nc4ccc(I)cc4F)n(C)c(=O)c(C)c32)c1 [trametinib],mouse body weight throughout the treatment course,7940B orthotopic tumors,did not impact mouse body weight
